Earlier results, collected in article PMC7135267, “Modified linear regression predicts drug-target interactions accurately” (PLoS ONE, 2020).

System: CFTR
Details: rats, caffeine intake

Cn1c(=O)c2c(ncn2C)n(C)c1=O [D00528, Caffeine]
CFTR chloride secretion in intestine: increased
